What follows are compounds tested against T1, human GPR131 (Homo sapiens, UniProt Q8TDU6) (assay: Stimulation of cAMP (agonism of GPR131), FRET cAMP assay). Conditions: 0.5 h; 1.1 μM compound; compared to maximal stimulatory activity of lithocholic acid (LCA) determined at 3.3 μM; stable cell line expressing human GPR131; 37° C. for 30 minutes; read-out: Percent Activity @ 1.1 μM (of 3.3 uM LCA) (%).
T1 construct: expressed in transfected cells
T1 sequence (Q8TDU6 1-330): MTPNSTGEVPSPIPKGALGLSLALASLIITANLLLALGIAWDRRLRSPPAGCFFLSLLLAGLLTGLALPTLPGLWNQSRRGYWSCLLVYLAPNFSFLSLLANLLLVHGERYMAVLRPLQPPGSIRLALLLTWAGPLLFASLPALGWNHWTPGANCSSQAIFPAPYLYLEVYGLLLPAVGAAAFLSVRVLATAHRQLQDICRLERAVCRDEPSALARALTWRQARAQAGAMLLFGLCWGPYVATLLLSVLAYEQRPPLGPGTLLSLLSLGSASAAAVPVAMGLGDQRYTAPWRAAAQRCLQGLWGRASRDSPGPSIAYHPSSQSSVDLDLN
Type: cell-based
Description: This assay was developed using a stable cell line expressing human GPR131.
To measure cAMP activity in response to GPR131 agonists, GPR131 cells suspended in DMEM/F12 medium with 1 mM IBMX were seeded in 384 well plates at 5000 cells per well. After incubating with test compounds at 37° C. for 30 minutes cAMP was measured using a fluorescene resonance energy transfer cAMP kit from Cis Bio (Bedford, Mass.) according to the manufacturer's instructions. Briefly, cells were lysed, and cAMP levels determined by competitive immunoassay using D2 labeled cAMP, and europium cryptate tagged anti cAMP antibody. Decreases in the FRET signal (fluorescence ratio (665 nm/620 […]) correspond to increases in intracellular cAMP levels.
Activities of test compounds in Table 1 below are expressed as percent activity at 1.1 μM compound compared to the maximal stimulatory activity of lithocholic acid (LCA) (determined at 3.3 μM LCA).

In order of rising activation at 1.1 µM:
1. Cn1cnc2cc(-n3cnnc3-c3c(-c4cc(Cl)ccc4Cl)nc4ccccn34)ccc21 [Compound 521, 5-(3-(2-(2,5-Dichlorophenyl)imidazo[1,2-a]pyridin-3-yl)-4H-1,2,4-triazol-4-yl)-1-methyl-1H-benzo[d]imidazole]  81.6%
2. CSc1nnc(-c2c(-c3cc(Cl)ccc3Cl)nc3ccccn23)n1-c1ccc(Cl)cc1 [Compound 528, 3-(4-(4-Chlorophenyl)-5-(methylthio)-4H-1,2,4-triazol-3-yl)-2-(2,5-dichlorophenyl)imidazo[1,2-a]pyridine]  86.8%
3. Clc1ccc(-n2nnnc2-c2c(-c3cc(Cl)ccc3Cl)nc3cnccn23)cc1 [Compound 556, 3-(1-(4-Chlorophenyl)-1H-tetrazol-5-yl)-2-(2,5-dichlorophenyl)imidazo[1,2-a]pyrazine]  88.4%
4. Cn1ncc2c(-n3cnnc3-c3c(-c4cc(Cl)ccc4Cl)nc4ccccn34)cccc21 [Compound 545, 4-(3-(2-(2,5-Dichlorophenyl)imidazo[1,2-a]pyridin-3-yl)-4H-1,2,4-triazol-4-yl)-1-methyl-1H-indazole]  90.9%
5. Clc1ccccc1-c1nc2ccccn2c1-c1nncn1-c1ccc2cn[nH]c2c1 [Compound 522, 6-(3-(2-(2-Chlorophenyl)imidazo[1,2-a]pyridin-3-yl)-4H-1,2,4-triazol-4-yl)-1H-indazole]  91.4%
6. Clc1ccc(Cl)c(-c2nc3ccccn3c2-c2nncn2-c2ccc3ncccc3c2)c1 [Compound 541, 6-(3-(2-(2,5-Dichlorophenyl)imidazo[1,2-a]pyridin-3-yl)-4H-1,2,4-triazol-4-yl)quinoline]  93.9%
7. Clc1ccc(Cl)c(-c2nc3cccnn3c2-c2nncn2-c2ccc3cn[nH]c3c2)c1 [Compound 523, 3-(4-(1H-Indazol-6-yl)-4H-1,2,4-triazol-3-yl)-2-(2,5-dichlorophenyl)imidazo[1,2-b]pyridazine]  95.2%
8. Cn1ncc2ccc(-n3cnnc3-c3c(-c4cc(Cl)ccc4Cl)nc4ccccn34)cc21 [Compound 520, 6-(3-(2-(2,5-Dichlorophenyl)imidazo[1,2-a]pyridin-3-yl)-4H-1,2,4-triazol-4-yl)-1-methyl-1H-indazole]  95.7%
9. Clc1ccc(-n2nnnc2-c2c(-c3cc(Cl)ccc3Cl)nc3occn23)cc1 [Compound 551, 5-(1-(4-Chlorophenyl)-1H-tetrazol-5-yl)-6-(2,5-dichlorophenyl)imidazo[2,1-b]oxazole]  95.7%
10. COc1nnc(-c2c(-c3cc(Cl)ccc3Cl)nc3ccccn23)n1-c1ccc(Cl)cc1 [Compound 527, 3-(4-(4-Chlorophenyl)-5-methoxy-4H-1,2,4-triazol-3-yl)-2-(2,5-dichlorophenyl)imidazo[1,2-a]pyridine]  97.1%
11. Cc1nc(-c2c(-c3cc(Cl)ccc3Cl)nc3ccccn23)n(-c2ccc(Cl)cc2)n1 [Compound 504, 3-(1-(4-Chlorophenyl)-3-methyl-1H-1,2,4-triazol-5-yl)-2-(2,5-dichlorophenyl)imidazo[1,2-a]pyridine]  97.4%
12. FC(F)(F)c1ccc(-n2nnnc2-c2c(-c3cc(Cl)ccc3Cl)nc3ccccn23)cc1 [Compound 562, 2-(2,5-Dichlorophenyl)-3-(1-(4-(trifluoromethyl)phenyl)-1H-tetrazol-5-yl)imidazo[1,2-a]pyridine]  97.9%
13. Clc1ccc(Cl)c(-c2nc3ccccn3c2-c2nncn2-c2ccc3scnc3c2)c1 [Compound 518, 5-(3-(2-(2,5-Dichlorophenyl)imidazo[1,2-a]pyridin-3-yl)-4H-1,2,4-triazol-4-yl)benzo[d]thiazole]  98.4%
14. CC(C)c1ccc(-n2cnnc2-c2c(-c3cc(Cl)ccc3Cl)nc3ccccn23)cc1 [Compound 530, 2-(2,5-Dichlorophenyl)-3-(4-(4-isopropylphenyl)-4H-1,2,4-triazol-3-yl)imidazo[1,2-a]pyridine]  98.9%
15. Cc1nnc(-c2c(-c3cc(Cl)ccc3Cl)nc3ccccn23)n1-c1ccc(Cl)cc1 [Compound 505, 3-(4-(4-Chlorophenyl)-5-methyl-4H-1,2,4-triazol-3-yl)-2-(2,5-dichlorophenyl)imidazo[1,2-a]pyridine]  99.1%
16. FC(F)(F)c1ccc(-n2nnnc2-c2c(-c3cc(Cl)ccc3Cl)nc3cccnn23)cc1 [Compound 563, 2-(2,5-Dichlorophenyl)-3-(1-(4-(trifluoromethyl)phenyl)-1H-tetrazol-5-yl)imidazo[1,2-b]pyridazine]  99.5%
17. N#Cc1ccc(-n2nnnc2-c2c(-c3cc(Cl)ccc3Cl)nc3ccccn23)cc1 [Compound 566, 4-(5-(2-(2,5-Dichlorophenyl)imidazo[1,2-a]pyridin-3-yl)-1H-tetrazol-1-yl)benzonitrile]  99.7%
18. Clc1ccc(Cl)c(-c2nc3ccccn3c2-c2nncn2-c2ccc3cn[nH]c3c2)c1 [Compound 516, 6-(3-(2-(2,5-Dichlorophenyl)imidazo[1,2-a]pyridin-3-yl)-4H-1,2,4-triazol-4-yl)-1H-indazole]  99.8%
19. N#Cc1ccc(-n2ccnc2-c2c(-c3cc(Cl)ccc3Cl)nc3ccccn23)cc1 [Compound 567, 4-(2-(2-(2,5-Dichlorophenyl)imidazo[1,2-a]pyridin-3-yl)-1H-imidazol-1-yl)benzonitrile]  99.9%
20. Clc1ccc(-n2ncnc2-c2c(-c3cc(Cl)ccc3Cl)nc3ccccn23)cc1 [Compound 554, 3-(1-(4-Chlorophenyl)-1H-1,2,4-triazol-5-yl)-2-(2,5-dichlorophenyl)imidazo[1,2-a]pyridine]  99.9%
21. CN(C)c1ccc(-n2cnnc2-c2c(-c3cc(Cl)ccc3Cl)nc3ccccn23)cc1 [Compound 510, 4-(3-(2-(2,5-Dichlorophenyl)imidazo[1,2-a]pyridin-3-yl)-4H-1,2,4-triazol-4-yl)-N,N-dimethylaniline]  100%
22. Clc1ccc(-n2nnnc2-c2c(-c3cc(Cl)ccc3Cl)nc3ccccn23)cc1 [Compound 552, 3-(1-(4-Chlorophenyl)-1H-tetrazol-5-yl)-2-(2,5-dichlorophenyl)imidazo[1,2-a]pyridine]  100%
23. Clc1ccc(-n2nnnc2-c2c(-c3cc(Cl)ccc3Cl)nc3cccnn23)cc1 [Compound 555, 3-(1-(4-Chlorophenyl)-1H-tetrazol-5-yl)-2-(2,5-dichlorophenyl)imidazo[1,2-b]pyridazine]  100%
24. Cn1ccc2cc(-n3cnnc3-c3c(-c4cc(Cl)ccc4Cl)nc4ccccn34)ccc21 [Compound 536, 2-(2,5-Dichlorophenyl)-3-(4-(1-methyl-1H-indol-5-yl)-4H-1,2,4-triazol-3-yl)imidazo[1,2-a]pyridine]  100%
25. Clc1ccc(-n2ccnc2-c2c(-c3cc(Cl)ccc3Cl)nc3n2CCCC3)cc1 [Compound 560, 3-(1-(4-Chlorophenyl)-1H-imidazol-2-yl)-2-(2,5-dichlorophenyl)-5,6,7,8-tetrahydroimidazo[1,2-a]pyridine]  100%
26. N#Cc1ccc(-n2cnnc2-c2c(-c3cc(Cl)ccc3Cl)nc3ccccn23)cc1 [Compound 515, 4-(3-(2-(2,5-Dichlorophenyl)imidazo[1,2-a]pyridin-3-yl)-4H-1,2,4-triazol-4-yl)benzonitrile]  100%

Source: patent publication US9593109B2, “Bicyclic agonists of GPR131 and uses thereof” (CYMABAY THERAPEUTICS, INC., priority 2011, dated 2017)
